# Measurements as given in PubChem BioAssay (NCI).
#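 Exposure lasted 48 hours, with cells grown in 96-well plates and compounds tested at five concentrations. GI50 marks 50% less growth. TGI marks complete inhibition of growth.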 Where a SMILES comes first, the peptide text is derived from it. [ ]: non-standard residue; d: D form. pGlu = O=C1CC[CH](C(=O)O)N1
# How the values were obtained:
# Test in all cases: DTP human tumour cell line panel, 48 h
# DU-145 prostate = tested on: DU-145 prostate
# SK-MEL-2 melanoma = tested on: SK-MEL-2 melanoma
# UO-31 renal = tested on: UO-31 renal
# MOLT-4 leukemia = tested on: MOLT-4 leukemia
# NCI-H226 lung = tested on: NCI-H226 lung
# T-47D breast = tested on: T-47D breast
# RXF 393 renal = tested on: RXF 393 renal
# HT29 colon = tested on: HT29 colon
# NCI-H23 lung = tested on: NCI-H23 lung
# COLO 205 colon = tested on: COLO 205 colon
# SF-268 CNS = tested on: SF-268 CNS
# HOP-92 NSCLC = tested on: HOP-92 NSCLC
# KM12 colon = tested on: KM12 colon
# OVCAR-8 ovarian = tested on: OVCAR-8 ovarian
# EKVX NSCLC = tested on: EKVX NSCLC
# HL-60(TB) leukemia = tested on: HL-60(TB) leukemia
# HCC-2998 colon = tested on: HCC-2998 colon
# SNB-75 CNS = tested on: SNB-75 CNS
# HOP-62 NSCLC = tested on: HOP-62 NSCLC
# A498 renal = tested on: A498 renal
# A549 NSCLC = tested on: A549 NSCLC
# SF-539 CNS = tested on: SF-539 CNS
# SNB-19 CNS = tested on: SNB-19 CNS
# SW-620 colon = tested on: SW-620 colon
# MALME-3M melanoma = tested on: MALME-3M melanoma
# MCF7 breast = tested on: MCF7 breast
# SK-MEL-28 melanoma = tested on: SK-MEL-28 melanoma
# CAKI-1 renal = tested on: CAKI-1 renal
# TK-10 renal = tested on: TK-10 renal
# SK-MEL-5 melanoma = tested on: SK-MEL-5 melanoma
# RPMI-8226 leukemia = tested on: RPMI-8226 leukemia
# PC-3 prostate = tested on: PC-3 prostate
# HS 578T breast = tested on: HS 578T breast
# NCI-H460 lung = tested on: NCI-H460 lung
# NCI/ADR-RES ovarian = tested on: NCI/ADR-RES ovarian
# U251 CNS = tested on: U251 CNS
# ACHN renal = tested on: ACHN renal
# LOX IMVI melanoma = tested on: LOX IMVI melanoma
# SR leukemia = tested on: SR leukemia
# CCRF-CEM leukemia = tested on: CCRF-CEM leukemia
# NCI-H522 lung = tested on: NCI-H522 lung
# 786-0 renal = tested on: 786-0 renal
# M14 melanoma = tested on: M14 melanoma
# MDA-MB-435 = tested on: MDA-MB-435
# MDA-MB-231 breast = tested on: MDA-MB-231 breast
# IGROV1 ovarian = tested on: IGROV1 ovarian
# SK-OV-3 ovarian = tested on: SK-OV-3 ovarian
# HCT-116 colon = tested on: HCT-116 colon
# UACC-257 melanoma = tested on: UACC-257 melanoma
# OVCAR-3 ovarian = tested on: OVCAR-3 ovarian
# BT-549 breast = tested on: BT-549 breast
# OVCAR-5 ovarian = tested on: OVCAR-5 ovarian
# SN12C renal = tested on: SN12C renal
# HCT-15 colon = tested on: HCT-15 colon
# SF-295 CNS = tested on: SF-295 CNS
# K-562 leukemia = tested on: K-562 leukemia
# OVCAR-4 ovarian = tested on: OVCAR-4 ovarian
compound,measurement,setting,value
CCNC(=O)C1CCCN1C(=O)C(CCCN=C(N)N)NC(=O)C(CC(C)C)NC(=O)C(CC(C)C)NC(=O)C(Cc1ccc(O)cc1)NC(=O)C(CO)NC(=O)C(Cc1c[nH]c2ccccc12)NC(=O)C(Cc1cnc[nH]1)NC(=O)C1CCC(=O)N1 (centres undefined) ([pGlu]HWSYLLRP-NHEt; configuration not given here),GI50,DU-145 prostate,> 100 µM
same,TGI,DU-145 prostate,> 100 µM
same,GI50,SK-MEL-2 melanoma,> 100 µM
same,TGI,SK-MEL-2 melanoma,> 100 µM
same,GI50,UO-31 renal,> 100 µM
same,TGI,UO-31 renal,> 100 µM
same,GI50,MOLT-4 leukemia,> 100 µM
same,TGI,MOLT-4 leukemia,> 100 µM
same,GI50,NCI-H226 lung,> 100 µM
same,TGI,NCI-H226 lung,> 100 µM
same,GI50,T-47D breast,> 100 µM
same,TGI,T-47D breast,> 100 µM
same,GI50,RXF 393 renal,> 100 µM
same,TGI,RXF 393 renal,> 100 µM
same,GI50,HT29 colon,> 100 µM
same,TGI,HT29 colon,> 100 µM
same,GI50,NCI-H23 lung,> 100 µM
same,TGI,NCI-H23 lung,> 100 µM
same,GI50,COLO 205 colon,> 100 µM
same,TGI,COLO 205 colon,> 100 µM
same,GI50,SF-268 CNS,> 100 µM
same,TGI,SF-268 CNS,> 100 µM
same,GI50,HOP-92 NSCLC,> 100 µM
same,TGI,HOP-92 NSCLC,> 100 µM
same,GI50,KM12 colon,> 100 µM
same,TGI,KM12 colon,> 100 µM
same,GI50,OVCAR-8 ovarian,> 100 µM
same,TGI,OVCAR-8 ovarian,> 100 µM
same,GI50,EKVX NSCLC,> 100 µM
same,TGI,EKVX NSCLC,> 100 µM
same,GI50,HL-60(TB) leukemia,> 100 µM
same,TGI,HL-60(TB) leukemia,> 100 µM
same,GI50,HCC-2998 colon,> 100 µM
same,TGI,HCC-2998 colon,> 100 µM
same,GI50,SNB-75 CNS,> 100 µM
same,TGI,SNB-75 CNS,> 100 µM
same,GI50,HOP-62 NSCLC,> 100 µM
same,TGI,HOP-62 NSCLC,> 100 µM
same,GI50,A498 renal,> 100 µM
same,TGI,A498 renal,> 100 µM
same,GI50,A549 NSCLC,> 100 µM
same,TGI,A549 NSCLC,> 100 µM
same,GI50,SF-539 CNS,> 100 µM
same,TGI,SF-539 CNS,> 100 µM
same,GI50,SNB-19 CNS,> 100 µM
same,TGI,SNB-19 CNS,> 100 µM
same,GI50,SW-620 colon,> 100 µM
same,TGI,SW-620 colon,> 100 µM
same,GI50,MALME-3M melanoma,> 100 µM
same,TGI,MALME-3M melanoma,> 100 µM
same,GI50,MCF7 breast,> 100 µM
same,TGI,MCF7 breast,> 100 µM
same,GI50,SK-MEL-28 melanoma,> 100 µM
same,TGI,SK-MEL-28 melanoma,> 100 µM
same,GI50,CAKI-1 renal,> 100 µM
same,TGI,CAKI-1 renal,> 100 µM
same,GI50,TK-10 renal,> 100 µM
same,TGI,TK-10 renal,> 100 µM
same,GI50,SK-MEL-5 melanoma,> 100 µM
same,TGI,SK-MEL-5 melanoma,> 100 µM
same,GI50,RPMI-8226 leukemia,74.3 µM
same,TGI,RPMI-8226 leukemia,> 100 µM
same,GI50,PC-3 prostate,> 100 µM
same,TGI,PC-3 prostate,> 100 µM
same,GI50,HS 578T breast,> 100 µM
same,TGI,HS 578T breast,> 100 µM
same,GI50,NCI-H460 lung,> 100 µM
same,TGI,NCI-H460 lung,> 100 µM
same,GI50,NCI/ADR-RES ovarian,> 100 µM
same,TGI,NCI/ADR-RES ovarian,> 100 µM
same,GI50,U251 CNS,> 100 µM
same,TGI,U251 CNS,> 100 µM
same,GI50,ACHN renal,> 100 µM
same,TGI,ACHN renal,> 100 µM
same,GI50,LOX IMVI melanoma,> 100 µM
same,TGI,LOX IMVI melanoma,> 100 µM
same,GI50,SR leukemia,> 100 µM
same,TGI,SR leukemia,> 100 µM
same,GI50,CCRF-CEM leukemia,81.7 µM
same,TGI,CCRF-CEM leukemia,> 100 µM
same,GI50,NCI-H522 lung,> 100 µM
same,TGI,NCI-H522 lung,> 100 µM
same,GI50,786-0 renal,> 100 µM
same,TGI,786-0 renal,> 100 µM
same,GI50,M14 melanoma,> 100 µM
same,TGI,M14 melanoma,> 100 µM
same,GI50,MDA-MB-435,> 100 µM
same,TGI,MDA-MB-435,> 100 µM
same,GI50,MDA-MB-231 breast,> 100 µM
same,TGI,MDA-MB-231 breast,> 100 µM
same,GI50,IGROV1 ovarian,> 100 µM
same,TGI,IGROV1 ovarian,> 100 µM
same,GI50,SK-OV-3 ovarian,> 100 µM
same,TGI,SK-OV-3 ovarian,> 100 µM
same,GI50,HCT-116 colon,> 100 µM
same,TGI,HCT-116 colon,> 100 µM
same,GI50,UACC-257 melanoma,> 100 µM
same,TGI,UACC-257 melanoma,> 100 µM
same,GI50,OVCAR-3 ovarian,> 100 µM
same,TGI,OVCAR-3 ovarian,> 100 µM
same,GI50,BT-549 breast,> 100 µM
same,TGI,BT-549 breast,> 100 µM
same,GI50,OVCAR-5 ovarian,> 100 µM
same,TGI,OVCAR-5 ovarian,> 100 µM
same,GI50,SN12C renal,> 100 µM
same,TGI,SN12C renal,> 100 µM
same,GI50,HCT-15 colon,> 100 µM
same,TGI,HCT-15 colon,> 100 µM
same,GI50,SF-295 CNS,> 100 µM
same,TGI,SF-295 CNS,> 100 µM
same,GI50,K-562 leukemia,> 100 µM
same,TGI,K-562 leukemia,> 100 µM
same,GI50,OVCAR-4 ovarian,> 100 µM
same,TGI,OVCAR-4 ovarian,> 100 µM
